In ChEMBL document CHEMBL1201862, “PubChem BioAssay data set” (2004):
Active and inactive are the calls of the source. Cut-off read from the data, not from the text of the source: actives have a measured IC50 and inactives only a lower limit.

Target: Envelope glycoprotein gp160 (Human immunodeficiency virus 1, UniProt Q6QLK5)
Assay: inhibitors of HIV fusion peptide binding, primary screen, biochemical, uHTS, fluorescence dequenching (AID 1986)

Chain of Envelope glycoprotein gp160 (Q6QLK5 whole entry, the tested form may be a part): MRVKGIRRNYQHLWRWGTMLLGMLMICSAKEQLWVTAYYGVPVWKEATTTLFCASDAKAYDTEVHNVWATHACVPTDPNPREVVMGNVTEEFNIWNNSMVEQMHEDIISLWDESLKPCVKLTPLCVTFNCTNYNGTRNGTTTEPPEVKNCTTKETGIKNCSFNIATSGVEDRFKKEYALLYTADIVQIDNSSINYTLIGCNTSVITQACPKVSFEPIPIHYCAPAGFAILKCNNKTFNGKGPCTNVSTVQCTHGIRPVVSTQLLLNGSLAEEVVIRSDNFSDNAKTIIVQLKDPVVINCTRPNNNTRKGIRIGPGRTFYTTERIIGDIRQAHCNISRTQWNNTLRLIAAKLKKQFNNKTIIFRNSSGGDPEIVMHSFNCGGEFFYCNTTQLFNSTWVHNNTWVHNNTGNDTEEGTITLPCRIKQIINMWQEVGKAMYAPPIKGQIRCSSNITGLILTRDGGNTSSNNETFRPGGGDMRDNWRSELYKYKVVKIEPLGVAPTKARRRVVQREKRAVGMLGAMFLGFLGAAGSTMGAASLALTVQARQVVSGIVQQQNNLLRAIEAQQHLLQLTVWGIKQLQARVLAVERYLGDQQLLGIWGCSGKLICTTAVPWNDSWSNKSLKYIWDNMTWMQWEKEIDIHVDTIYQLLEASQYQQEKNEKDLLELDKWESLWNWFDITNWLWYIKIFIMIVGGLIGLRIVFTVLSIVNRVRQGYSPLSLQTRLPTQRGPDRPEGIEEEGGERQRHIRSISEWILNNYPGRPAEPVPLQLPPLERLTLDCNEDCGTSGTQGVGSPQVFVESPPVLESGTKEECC

COc1cc(/C=C2\SC(=O)N(c3ccccc3Cl)C2=O)cc([N+](=O)[O-])c1O
IC50: 24.7 µM (active)
